In the assay the target is Transcription factor p65 (Homo sapiens) (UniProt Q04206). Put plainly: Inhibition of NF-kappaB DNA binding by EMSA. Background: A gel shift assay detects complexes by their altered migration in electrophoresis.
Chain of Transcription factor p65 (Homo sapiens) (Q04206 whole entry): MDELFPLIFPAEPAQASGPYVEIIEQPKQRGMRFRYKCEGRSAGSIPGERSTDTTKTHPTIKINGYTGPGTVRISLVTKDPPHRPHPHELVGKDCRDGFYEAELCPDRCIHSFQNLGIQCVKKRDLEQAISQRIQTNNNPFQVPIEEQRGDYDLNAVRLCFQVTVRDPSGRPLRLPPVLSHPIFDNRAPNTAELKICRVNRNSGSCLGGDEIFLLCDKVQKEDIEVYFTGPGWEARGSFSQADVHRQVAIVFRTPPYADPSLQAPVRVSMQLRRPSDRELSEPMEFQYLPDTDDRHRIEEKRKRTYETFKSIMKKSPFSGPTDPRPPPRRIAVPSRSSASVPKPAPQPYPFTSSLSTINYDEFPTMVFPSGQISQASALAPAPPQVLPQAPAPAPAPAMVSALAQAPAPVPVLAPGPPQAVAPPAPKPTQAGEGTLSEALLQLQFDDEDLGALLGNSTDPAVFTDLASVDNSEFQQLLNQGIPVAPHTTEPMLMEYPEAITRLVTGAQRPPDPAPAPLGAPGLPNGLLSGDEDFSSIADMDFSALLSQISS

As for `C=C1C(=O)O[C@H]2C[C@H](C)C3=C(C[C@H]12)[C@@H](C)CC3=O`, the IC100 turned out to be 20 µM.
For `C=C1CCC=C(C)[C@@]2(O)[C@H](OC(=O)[C@]3(C)O[C@@H]3C)[C@@H]3[C@@H](OC(=O)[C@@H]3C)[C@H]12`, the IC100 amounted to 200 µM.
Then `C=C1C(=O)O[C@H]2[C@H]1CCC(C)=C1C(=O)[C@H]3O[C@@]3(C)[C@@H]12`, with 5 µM; and `C=C1C[C@@H]2OC(=O)C(=C)[C@H]2[C@H](O)/C=C(\C)CCC1=O`, with 50 µM; and `C=C1C(=O)O[C@H]2C/C(CO)=C/CC/C(COC(=O)C(C)(C)O)=C/C[C@H]12`, with 50 µM.
For `C=C(C)C(=O)O[C@H]1C/C(C)=C\[C@@]2(OC)C=C(C)[C@H](O2)[C@H]2OC(=O)C(=C)[C@@H]21`, the IC100 was 10 µM.
To `C=C1C(=O)O[C@H]2/C=C(\C)[C@@H](O)CC/C(C)=C/[C@@H](O)[C@H]12` belongs 200 µM.
Molecule `C=C1C(=O)O[C@@H]2C[C@H](C)[C@@]3(O)CC[C@@](C)(C[C@@H](OC(=O)C(C)C)[C@@H]12)O3` registered an IC100 of 200 µM.
Then `CC[C@@H](C)[C@@]1(O)O[C@H]2C[C@@]3(C)OC(=CC3=O)/C(COC(C)=O)=C\[C@H]3OC(=O)[C@@]1(C)C23` (some centres undefined), with 5 µM.
`C=C(C)C(=O)O[C@H]1[C@H]2C(=C)C(=O)O[C@@H]2[C@@H]2O[C@]2(C)CC/C=C(/C=O)[C@@H]1O` came in with an IC100 of 10 µM.
As to `C=C1C(=O)O[C@@H]2C[C@@H](C)[C@@H]3C=CC(=O)[C@@]3(C)[C@H](OC(=O)C(C)CC)[C@H]12` (some centres undefined), the IC100 is 10 µM.
To `C=C1C(=O)O[C@H]2[C@H]1[C@H](OC(=O)/C(C)=C\C)C[C@@]1(C)OC(=CC1=O)C(=C)[C@@H]2O` belongs 10 µM; to `C=C1C(=O)O[C@@H]2[C@H]1[C@@H](OC(=O)[C@]1(C)O[C@@H]1C)C(=O)[C@@]1(C)C=CC[C@@](C)(O)[C@H]21`, 10 µM; to `C=C1C(=O)O[C@H]2CC(=C)[C@H](O)CC/C(C)=C/[C@@H](O)[C@H]12`, 50 µM.
To `C=C1C(=O)O[C@@H]2C[C@@H](C)[C@@H]3[C@H](OCC)CC(=O)[C@@]3(C)[C@H](OC(C)=O)[C@H]12` belongs 50 µM; to `C=C1C(=O)O[C@@H]2/C=C(\C)CC/C=C(/C)CC[C@@]12O`, 10 µM.
`C=C(C)C(=O)O[C@H]1[C@H]2C(=C)C(=O)O[C@@H]2[C@@H](O)C(=C)CC/C=C(/C=O)[C@@H]1OC(C)=O` had an IC100 of 10 µM.
`C=C(C)C(=O)O[C@@H]1C[C@@]2(C)OC(=CC2=O)/C(C)=C\[C@H]2OC(=O)C(=C)[C@@H]21` gave an IC100 of 10 µM.
`C[C@H]1C(=O)O[C@H]2C/C(CO)=C/CC/C(CO)=C/C[C@@H]21` had an IC100 of 300 µM.
Consider `C=C(C)C(=O)O[C@H]1[C@H]2C(=C)C(=O)O[C@@H]2/C=C(\COC(C)=O)CC/C=C(/C=O)[C@@H]1O`, for which the IC100 was determined as 5 µM.
To `C=C(C)C(=O)O[C@@H]1/C=C(\C=O)[C@H](OC)CCC(=C)[C@H](O)[C@H]2OC(=O)C(=C)[C@@H]21` belongs 10 µM; to `C=C(C)C(=O)OC/C1=C\C[C@@H]2C(=C)C(=O)O[C@H]2C/C(CO)=C/CC1`, 50 µM; to `C=C(C)C(=O)O[C@H]1C[C@@]2(C)OC(=CC2=O)C(=C)[C@@H](Cl)[C@H]2OC(=O)C(=C)[C@@H]21`, 5 µM.
Then `C=C1C(=O)C=C2[C@H]1C[C@@H]1C(=C)C(=O)O[C@H]1C[C@@H]2C`, with 5 µM; and `C=C1C(=O)O[C@@H]2C[C@H](C)C3=CC(=O)[C@H](C)[C@@H]3C[C@H]12`, with 50 µM.
To `C=C1C(=O)O[C@@H]2/C=C(\COC(=O)C(C)C)CC/C=C(\CO)C(=O)C[C@@H]12` belongs 12.5 µM.
For the molecule `C=C1C(=O)O[C@@H]2C[C@@]3(C)[C@H](OC(C)=O)CC[C@](O)(COC(=O)C(C)C)[C@@H]3C[C@H]12`, the IC100 is 100 µM.
To `C=C(C)C(=O)O[C@H]1C/C(C)=C/C(=O)/C=C(/C)[C@H](O)[C@H]2OC(=O)C(=C)[C@@H]21` belongs 10 µM; to `C[C@@H]1C[C@H]2OC(=O)[C@@H](C)[C@H]2[C@H](O)[C@]2(C)C(=O)C=C[C@@H]12`, 200 µM.

(Values after ChEMBL document CHEMBL1146082, “Development of a structural model for NF-kappaB inhibition of sesquiterpene lactones using self-organizing neural networks” (J Med Chem, 2006).)
